The target of assay [1] is T1, serpentine synthase (SS, CrSS) (Catharanthus roseus, UniProt A0A8F5R546).
T1 construct: predicted TM helix aa 7-24 FWSLPAIALLQVFLFFLF; 6HIS version (in planta) about 59 kDa
T1 sequence (A0A8F5R546 1-511): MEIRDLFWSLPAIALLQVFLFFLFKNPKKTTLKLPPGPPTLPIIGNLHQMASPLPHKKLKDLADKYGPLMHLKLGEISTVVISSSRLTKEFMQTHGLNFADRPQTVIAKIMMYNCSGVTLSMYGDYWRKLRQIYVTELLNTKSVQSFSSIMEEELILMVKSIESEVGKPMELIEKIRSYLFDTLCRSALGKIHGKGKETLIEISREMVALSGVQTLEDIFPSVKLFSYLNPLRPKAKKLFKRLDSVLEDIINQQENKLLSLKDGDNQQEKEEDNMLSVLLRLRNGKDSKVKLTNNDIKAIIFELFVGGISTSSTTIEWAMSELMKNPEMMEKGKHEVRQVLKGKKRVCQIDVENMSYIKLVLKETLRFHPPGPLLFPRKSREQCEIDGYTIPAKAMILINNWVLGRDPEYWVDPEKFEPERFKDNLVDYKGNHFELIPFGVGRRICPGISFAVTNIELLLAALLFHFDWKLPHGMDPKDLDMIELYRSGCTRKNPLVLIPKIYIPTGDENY
Kind of assay: LC-MS of product alstonine, yeast cultures expressing CrSS and yeast microsomes. It is filed as biochemical. Particulars: 30 uM substrate; microsomes: 150 uM NADPH, HEPES-NaOH pH 7.5, 30 C, 60 min; AaCPR co-expressed.

The target in assay [2] is T1, serpentine synthase (SS, CrSS). As to the kind of experiment: LC-MS of product serpentine, yeast cultures expressing CrSS and yeast microsomes. Type of assay: biochemical. The settings on record: 30 uM substrate; microsomes: 150 uM NADPH, HEPES-NaOH pH 7.5, 30 C, 60 min; AaCPR co-expressed.

Structures are written as SMILES.

Consider `COC(=O)C1=CO[C@@H](C)[C@@H]2CN3CCc4c([nH]c5ccccc45)[C@@H]3C[C@H]12` [THA], for which the “LC-MS of product alstonine, yeast cultures expressing CrSS and yeast microsomes” value in assay [1] was “this cytochrome P450 could also produce alstonine from THA”.
Turning to `COC(=O)C1=CO[C@@H](C)[C@H]2CN3CCc4c([nH]c5ccccc45)[C@@H]3C[C@H]12` [ajmalicine], the “LC-MS of product serpentine, yeast cultures expressing CrSS and yeast microsomes” value in assay [2] is “CrSS produced serpentine from ajmalicine when incubated in the media of yeast cultures expressing CrSS”.

For the origin of these results see paper PMC8491018, “Improved virus-induced gene silencing allows discovery of a serpentine synthase gene in Catharanthus roseus” (Plant Physiology, 2021).
